Assay results from patent EP3782997A1, “FUSED PYRIMIDINE COMPOUNDS AND PHARMACEUTICAL COMPOSITIONS THEREOF FOR THE TREATMENT OF FIBROTIC DISEASES” (Galapagos N.V., priority 2019, dated 2021).

Molecular target: hENPP2 (Homo sapiens, UniProt Q13822)
Experiment: Human ENPP2 (hENPP2) biochemical assay using LPC as substrate
Conditions: 150 µM LPC (palmitoyl 16:0), 37°C for 30 min
Description: The principle of the assay conswasts in quantifying the released choline with an enzymatic method using choline oxidase and peroxidase. Choline oxydation by choline oxydase releases betaine and peroxide. The latter was quantified in presence of HRP that converts the peroxide detection agent TOOS (CAS# 82692-93-1) and 4-aminoantipyrine into quinoneimine dye. The appearance of quinoneimine dye was measured spectrophotometrically at 555 nm and was proportional to the amount of choline released by ENPP2. Inhibition of ENPP2 results in a decrease of the signal.
Compound IC50 values were determined in a hENPP2 (UniProtKB/SwwassProt Sequence ref Q13822) biochemical assay using LPC as substrate.
5 µL of a dilution series of compound, starting from 50 µM highest concentration, 1/3 dilution, was added to the wells. hENPP2 was used at a final concentration of 1 µg/mL or 3 µg/mL (it will be appreciated by the skilled person that the potency read out was independent of the enzyme concentration). The enzyme was diluted in 50 mM Trwas-HCl pH 8.5, 500 mM NaCl, 5 mM KCl, 10 mM CaCl2, 0.1% fatty acid free BSA in a total volume of 10 µL. The reaction was started by the addition of 10 µL of 150 µM LPC (palmitoyl 16:0; Avanti Polar Lipids, Inc., Cat# 855675) diluted in the same buffer as described above and the mixture was incubated at 37°C for 30 min. The reaction was terminated and choline quantified by the addition of a 25 µL of a mixture containing 0.6 U/mL of choline oxidase, 0.6 U/mL of peroxydase, 1.8 mM TOOS, 1.2 mM amino-antipyrine, 20 mM EGTA (stop-developer solution) diluted in the buffer described above. […] was read on an Envision plate reader (PerkinElmer, Inc.) after an incubation of 30 min at room temperature (excitation 555 nm).

IC50 [nM] | SMILES
100 to 500 | Cc1cc(C)cc(Nc2ncc3c(n2)CN(C2CN(C(=O)c4ccc5[nH]nnc5c4)CC2(F)F)C3)c1 (centres unmarked) [Cpd 101, 1H-benzotriazol-5-yl-[4-[2-(3,5-dimethylanilino)-5,7-dihydropyrrolo[3,4-d]pyrimidin-6-yl]-3,3-difluoro-pyrrolidin-1-yl]methanone]
0.01 to 100 | COC(=O)[C@@H]1C[C@H](N2Cc3cnc(Nc4cc(C)cc(C)c4)nc3C2)CCN1C(=O)c1ccc2[nH]nnc2c1 [Cpd 104, methyl (2S,4R)-1-(1H-benzotriazole-5-carbonyl)-4-[2-(3,5-dimethylanilino)-5,7-dihydropyrrolo[3,4-d]pyrimidin-6-yl]pipe ridine-2-carboxylate]
500 to 1000 | Cc1cc(C)cc(Nc2ncc3c(n2)CN(C2CCN(C(=O)c4ccc5[nH]cnc5c4)CC2)C3)c1 [Cpd 108, 1H-benzimidazol-5-yl-[4-[2-(3,5-dimethylanilino)-5,7-dihydropyrrolo[3,4-d]pyrimidin-6-yl]-1-piperidyl]methanone]
0.01 to 100 | Cc1cc(C)cc(Nc2ncc3c(n2)CN(C2CCN(C(=O)c4cc5nn[nH]c5cc4F)C(C)(C)C2)C3)c1 (centres unmarked) [Cpd 117, [4-[2-(3,5-dimethylanilino)-5,7-dihydropyrrolo[3,4-d]pyrimidin-6-yl]-2,2-dimethyl-1-piperidyl]-(6-fluoro-1H-benzotriazol-5-yl)methanone]
> 1000 | Cc1cc(C)cc(Nc2ncc3c(n2)CN(C2CCN(C(=O)c4ccc5oc(=O)[nH]c5c4)CC2)C3)c1 [Cpd 118, 5-[4-[2-(3,5-dimethylanilino)-5,7-dihydropyrrolo[3,4-d]pyrimidin-6-yl]piperidine-1-carbonyl]-3H-1,3-benzoxazol-2-one]
> 1000 | Cc1cc(C)cc(Nc2ncc3c(n2)CN([C@H]2CCN(C(=O)c4ccc(S(N)(=O)=O)cc4)[C@@H](C)C2)C3)c1 [Cpd 124, 4-[(2S,4S)-4-[2-(3,5-dimethylanilino)-5,7-dihydropyrrolo[3,4-d]pyrimidin-6-yl]-2-methyl-piperidine-1-carbonyl]benzenesulfonamide]
0.01 to 100 | COc1cc(C)cc(Nc2ncc3c(n2)CN([C@@H]2CCN(C(=O)c4ccc5[nH]nnc5c4)[C@H](C)C2)C3)c1 [Cpd 125, 1H-benzotriazol-5-yl-[(2R,4R)-4-[2-(3-methoxy-5-methyl-anilino)-5,7-dihydropyrrolo[3,4-d]pyrimidin-6-yl]-2-methyl-1-piperidyl]methanone]
0.01 to 100 | Cc1cc(C)cc(Nc2ncc3c(n2)CN(C2(C)CCN(C(=O)c4ccc5[nH]nnc5c4)CC2)C3)c1 [Cpd 130, 1H-benzotriazol-5-yl-[4-[2-(3,5-dimethylanilino)-5,7-dihydropyrrolo[3,4-d]pyrimidin-6-yl]-4-methyl-1-piperidyl]methanone]
> 1000 | Cc1cc(C)cc(Nc2ncc3c(n2)CN([C@H]2CCN(C(=O)c4ccc(S(=O)(=O)NC(=O)C(C)C)cc4)[C@@H](C)C2)C3)c1 [Cpd 131, N-[4-[(2S,4S)-4-[2-(3,5-dimethylanilino)-5,7-dihydropyrrolo[3,4-d]pyrimidin-6-yl]-2-methyl-piperidine-1-carbonyl]phenyl]sulfonyl-2-methyl-propanamide]
> 1000 | Cc1cc(C)cc(Nc2ncc3c(n2)CN([C@H]2CCN(C(=O)c4ccc(C(=O)O)cc4)[C@@H](C)C2)C3)c1 [Cpd 132, 4-[(2S,4S)-4-[2-(3,5-dimethylanilino)-5,7-dihydropyrrolo[3,4-d]pyrimidin-6-yl]-2-methyl-piperidine-1-carbonyl]benzoic acid]
> 1000 | Cc1cc(C)cc(Nc2ncc3c(n2)CN([C@H]2CCN(C(=O)c4ccc(C(=O)NS(C)(=O)=O)cc4)[C@@H](C)C2)C3)c1 [Cpd 133, 4-[(2S,4S)-4-[2-(3,5-dimethylanilino)-5,7-dihydropyrrolo[3,4-d]pyrimidin-6-yl]-2-methyl-piperidine-1-carbonyl]-N-methylsulfonylbenzamide]
100 to 500 | Cc1cc(C)cc(Nc2ncc3c(n2)CCN(C2CCN(C(=O)c4ccc5[nH]nnc5c4)[C@@H](C)C2)CC3)c1 (stereo partly drawn) [Cpd 142, 1H-benzotriazol-5-yl-[(2S)-4-[2-(3,5-dimethylanilino)-5,6,8,9-tetrahydropyrimido[4,5-d]azepin-7-yl]-2-methyl-1-piperidyl]methanone]
> 1000 | Cc1cc(C)cc(Nc2ncc3c(n2)CN([C@@H]2CCN(C(=O)c4cccc(C(=O)O)c4)[C@H](C)C2)C3)c1 [Cpd 146, 3-[(2R,4R)-4-[2-(3,5-dimethylanilino)-5,7-dihydropyrrolo[3,4-d]pyrimidin-6-yl]-2-methyl-piperidine-1-carbonyl]benzoic acid]
> 1000 | Cc1cc(C)cc(Nc2ncc3c(n2)CN([C@@H]2CCN(C(=O)c4ccc(-c5nnn[nH]5)cc4)[C@H](C)C2)C3)c1 [Cpd 153, [(2R,4R)-4-[2-(3,5-dimethylanilino)-5,7-dihydropyrrolo[3,4-d]pyrimidin-6-yl]-2-methyl-1-piperidyl]-[4-(1H-tetrazol-5-yl)phenyl]methanone]
0.01 to 100 | Cc1cc(C)cc(Nc2ncc3c(n2)CCN(C2(C)CCN(C(=O)c4ccc5[nH]nnc5c4)CC2)C3)c1 [Cpd 158, 1H-benzotriazol-5-yl-[4-[2-(3,5-dimethylanilino)-7,8-dihydro-5H-pyrido[4,3-d]pyrimidin-6-yl]-4-methyl-1-piperidyl]methanone]
0.01 to 100 | C[C@@H]1C[C@H](N2Cc3cnc(Nc4ccc(C#N)cc4)nc3C2)CCN1C(=O)c1ccc2[nH]nnc2c1 [Cpd 160, 4-[[6-[(2R,4R)-1-(1H-benzotriazole-5-carbonyl)-2-methyl-4-piperidyl]-5,7-dihydropyrrolo[3,4-d]pyrimidin-2-yl]amino]benzonitrile]
100 to 500 | Cc1cc(C)cc(Nc2ncc3c(n2)CCN(C2CN(C(=O)c4ccc5[nH]nnc5c4)C2)C3)c1 [compound 2, 1H-benzotriazol-5-yl-[3-[2-(3,5-dimethylanilino)-7,8-dihydro-5H-pyrido[4,3-d]pyrimidin-6-yl]azetidin-1-yl]methanone]
0.01 to 100 | Cc1cc(C)cc(Nc2ncc3c(n2)CCN(C2CCN(C(=O)c4ccc5[nH]c(=O)oc5c4)C2)C3)c1 (centres unmarked) [compound 4, 6-[3-[2-(3,5-dimethylanilino)-7,8-dihydro-5H-pyrido[4,3-d]pyrimidin-6-yl]pyrrolidine-1-carbonyl]-3H-1,3-benzoxazol-2-one]
100 to 500 | Cc1cc(C)cc(Nc2ncc3c(n2)CCN(C2CCN(C(=O)c4ccc5[nH]nnc5c4)C2)C3)c1 (centres unmarked) [compound 5, 1H-benzotriazol-5-yl-[3-[2-(3,5-dimethylanilino)-7,8-dihydro-5H-pyrido[4,3-d]pyrimidin-6-yl]pyrrolidin-1-yl]methanone]
0.01 to 100 | O=C(c1ccc2[nH]c(=O)oc2c1)N1CC(N2Cc3cnc(Nc4cc(C(F)(F)F)cc(C(F)(F)F)c4)nc3C2)C1 [compound 6, 6-[3-[2-[3,5-bis(trifluoromethyl)anilino]-5,7-dihydropyrrolo[3,4-d]pyrimidin-6-yl]azetidine-1-carbonyl]-3H-1,3-benzoxazol-2-one]
100 to 500 | Cc1cc(C)cc(Nc2ncc3c(n2)CCN(C2CCN(C(=O)c4ccc5[nH]c(=O)oc5c4)CC2)C3)c1 [compound 7, 6-[4-[2-(3,5-dimethylanilino)-7,8-dihydro-5H-pyrido[4,3-d]pyrimidin-6-yl]piperidine-1-carbonyl]-3H-1,3-benzoxazol-2-one]
0.01 to 100 | O=C(c1ccc2[nH]c(=O)oc2c1)N1CC(N2CCc3nc(Nc4cc(C(F)(F)F)cc(C(F)(F)F)c4)ncc3C2)C1 [compound 8, 6-[3-[2-[3,5-bis(trifluoromethyl)anilino]-7,8-dihydro-5H-pyrido[4,3-d]pyrimidin-6-yl]azetidine-1-carbonyl]-3H-1,3-benzoxazol-2-one]
0.01 to 100 | O=C(c1ccc2[nH]nnc2c1)N1CC(N2Cc3cnc(Nc4cc(C(F)(F)F)cc(C(F)(F)F)c4)nc3C2)C1 [compound 9, 1H-benzotriazol-5-yl-[3-[2-[3,5-bis(trifluoromethyl)anilino]-5,7-dihydropyrrolo[3,4-d]pyrimidin-6-yl]azetidin-1-yl]methanone]
0.01 to 100 | Cc1cc(C)cc(Nc2ncc3c(n2)CN(C2CCN(C(=O)c4ccc5[nH]nnc5c4)CC2)C3)c1 [compound 10, 1H-benzotriazol-5-yl-[4-[2-(3,5-dimethylanilino)-5,7-dihydropyrrolo[3,4-d]pyrimidin-6-yl]-1-piperidyl]methanone]
0.01 to 100 | Cc1cc(C)cc(Nc2ncc3c(n2)CN(C2CCN(C(=O)c4ccc5[nH]c(=O)oc5c4)CC2)C3)c1 [compound 11, 6-[4-[2-(3,5-dimethylanilino)-5,7-dihydropyrrolo[3,4-d]pyrimidin-6-yl]piperidine-1-carbonyl]-3H-1,3-benzoxazol-2-one]
0.01 to 100 | Cc1cc(C)cc(Nc2ncc3c(n2)CN(C2CCN(C(=O)c4ccc5[nH]c(=O)oc5c4)C2)C3)c1 (centres unmarked) [compound 12, 6-[3-[2-(3,5-dimethylanilino)-5,7-dihydropyrrolo[3,4-d]pyrimidin-6-yl]pyrrolidine-1-carbonyl]-3H-1,3-benzoxazol-2-one]
